“Also recorded” adds a separate entry of the source. Where two headings read alike, the source gives them in different places.

The target of data set [1] is T1, MAO-A (Homo sapiens, UniProt P21397).
T1 construct: purchased BD Biosciences (Bedford, MA, USA)
T1 sequence (P21397 1-527): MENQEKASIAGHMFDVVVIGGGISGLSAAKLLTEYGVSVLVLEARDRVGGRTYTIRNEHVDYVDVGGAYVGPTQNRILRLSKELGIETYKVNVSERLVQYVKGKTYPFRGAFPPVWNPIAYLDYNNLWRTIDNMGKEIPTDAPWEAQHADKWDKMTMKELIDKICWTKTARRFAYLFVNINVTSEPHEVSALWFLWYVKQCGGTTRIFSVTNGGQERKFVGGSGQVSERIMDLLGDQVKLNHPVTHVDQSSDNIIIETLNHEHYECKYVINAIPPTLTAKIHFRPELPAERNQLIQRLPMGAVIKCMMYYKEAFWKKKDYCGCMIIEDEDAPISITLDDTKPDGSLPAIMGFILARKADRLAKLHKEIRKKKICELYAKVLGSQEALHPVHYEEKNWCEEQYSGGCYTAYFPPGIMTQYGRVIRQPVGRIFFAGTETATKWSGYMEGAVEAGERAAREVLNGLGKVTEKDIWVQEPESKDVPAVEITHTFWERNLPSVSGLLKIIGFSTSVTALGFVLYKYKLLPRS
The experiment in a line: MAO inhibition assay (kynuramine oxidative deamination), MAO-A. The format is biochemical. The settings on record: for SI b (Selectivity index: MAO-A IC50/MAO-B IC50): ratio of IC50 values. The procedure: In this study, we have investigated the effect of the isolated constituents (1–6) on human recombinant MAO-A and -B. The kynuramine oxidation deamination assay was performed in 96-well plates as previously reported, with modification. A fixed concentration of kynuramine substrate and varying concentrations of test compounds or inhibitor were used to determine the IC50 values. Kynuramine concentrations for MAO-A and -B were 80 μM and 50 μM, respectively. […] The enzymatic reactions were initiated by the addition of MAO-A (5 μg/mL) or -B (12.5 μg/mL), and incubated for 20 min at 37 °C. The enzyme reactions were terminated by the addition of 78 μL of 2N NaOH. The formation of 4-hydroxyquinoline (the enzyme reaction end product) was recorded fluorometrically on a SpectraMax M5 fluorescence plate reader (Molecular Devices, Sunnyvale, CA, USA) with an excitation (320 nm) and emission (380 nm) wavelength, using the Soft MaxPro-6 program. The inhibition effects of enzyme activity were calculated as the percent of product formation compared to the corresponding controls (enzyme–substrate reaction) without inhibitors. The assay controls, to define the interference of the test compounds with the fluorescence measurements, were set up simultaneously, and the enzyme or the substrate was added after stopping the reaction.
(§1) The dose–response enzyme-inhibition curves were generated using Microsoft® Excel and the IC50 values were computed with XLfit®.

Data set [2] deals with T2, MAO-B (Homo sapiens, UniProt P27338).
T2 sequence (P27338 1-520): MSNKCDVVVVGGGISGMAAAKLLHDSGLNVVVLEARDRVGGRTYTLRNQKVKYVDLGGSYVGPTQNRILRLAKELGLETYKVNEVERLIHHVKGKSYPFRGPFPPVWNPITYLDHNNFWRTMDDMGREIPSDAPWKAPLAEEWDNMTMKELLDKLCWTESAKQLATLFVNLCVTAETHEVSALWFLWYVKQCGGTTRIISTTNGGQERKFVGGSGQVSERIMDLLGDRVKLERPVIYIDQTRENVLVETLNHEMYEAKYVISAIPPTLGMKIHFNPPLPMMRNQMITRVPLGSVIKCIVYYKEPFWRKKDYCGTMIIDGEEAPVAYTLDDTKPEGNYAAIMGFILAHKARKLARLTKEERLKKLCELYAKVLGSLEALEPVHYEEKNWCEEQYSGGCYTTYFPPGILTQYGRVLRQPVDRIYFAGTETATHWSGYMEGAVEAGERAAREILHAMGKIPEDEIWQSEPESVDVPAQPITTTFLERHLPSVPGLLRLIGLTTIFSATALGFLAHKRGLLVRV
The experiment in a line: MAO inhibition assay (kynuramine oxidative deamination), MAO-B. The format is biochemical. More on the design: purchased BD Biosciences (Bedford, MA, USA). Particulars: kynuramine 50 μM; mean ± S.D. of at least triplicate observations. The procedure:
In this study, we have investigated the effect of the isolated constituents (1–6) on human recombinant MAO-A and -B. The kynuramine oxidation deamination assay was performed in 96-well plates as previously reported, with modification. A fixed concentration of kynuramine substrate and varying concentrations of test compounds or inhibitor were used to determine the IC50 values. Kynuramine concentrations for MAO-A and -B were 80 μM and 50 μM, respectively. […] The enzyme reactions were terminated by the addition of 78 μL of 2N NaOH. The formation of 4-hydroxyquinoline (the enzyme reaction end product) was recorded fluorometrically on a SpectraMax M5 fluorescence plate reader (Molecular Devices, Sunnyvale, CA, USA) with an excitation (320 nm) and emission (380 nm) wavelength, using the Soft MaxPro-6 program. The inhibition effects of enzyme activity were calculated as the percent of product formation compared to the corresponding controls (enzyme–substrate reaction) without inhibitors. The assay controls, to define the interference of the test compounds with the fluorescence measurements, were set up simultaneously, and the enzyme or the substrate was added after stopping the reaction.
as §1

The target in data set [3] is T1, MAO-A. The experiment in a line: Enzyme kinetics and mechanism study (Lineweaver-Burk), MAO-A. Particulars: for Type of Inhibition, Monoamine Oxidase-A: kinetics and dialysis. The format is biochemical.
Protocol: (§3) Three sets of assays were completed at varying concentrations of the substrate for each experiment, one control without inhibitor and the others with two different concentrations of the inhibitor. The data were evaluated by double reciprocal Lineweaver-Burk plots for determination of the Ki (i.e., inhibition/binding affinity) values.
(§4) For determination of the binding affinity of the inhibitor (Ki) to MAO-A and -B, the enzyme assays were carried out at different concentrations of kynuramine substrate (1.90 μM to 500 μM) and varying concentrations of the inhibitors/compound. The flavonoids (1–6) were tested at 0.030–0.100 μM for MAO-A and 0.100–0.500 μM for -B. The controls without inhibitor were also run simultaneously. The results were analyzed by SigmaPlot version 10 using standard double reciprocal Lineweaver-Burk plots for computing Km and Vmax values, which were further analyzed to determine the Ki values [18, 36, 37].
The target in data set [4] is T2, MAO-B. As to the kind of experiment: Enzyme kinetics and mechanism study (Lineweaver-Burk), MAO-B. The settings on record: for Type of Inhibition, Monoamine Oxidase-B: kinetics and dialysis.
Protocol: as §3, §4
Data set [5] addresses T2, MAO-B. As to the kind of experiment: Time-dependent inhibition assay, MAO-B. The format is biochemical. More on the design: purchased BD Biosciences (Bedford, MA, USA). Particulars: pre-incubation 0–15 min; 3 3.0 μM, 4 1.0 μM, 6 2.0 μM. The procedure:
To investigate if the binding of the inhibitor with MAO-A and -B followed time-dependent inhibition kinetics, the enzyme was pre-incubated with the inhibitor for different time periods (0–15 min). […] The controls without inhibitors were also run simultaneously. The activities of the MAO-A and -B enzymes were determined as described above and the percentage of enzyme activity remaining was plotted against the pre-incubation time to determine time-dependent inhibition.

In data set [6] the target is T2, MAO-B. The experiment in a line: Enzyme-inhibitor complex equilibrium dialysis assay, MAO-B. Format: binding. More on the design: purchased BD Biosciences (Bedford, MA, USA). Particulars: for MAO-B enzyme activity recovered after dialysis / inhibition at 50 µM: 50.0 μM; for inhibition at 50 µM: read-out: Inhibition of MAO-B activity on incubation (before dialysis); for Reversibility of binding with MAO-B: 20 min incubation, dialyzed overnight, 3, 4, 6 at 50.0 μM, deprenyl 0.500 μM. The procedure: (§2) Enzyme-inhibitors mostly produce inhibition of the target enzyme through the formation of an enzyme–inhibitor complex. The formation of the enzyme–inhibitor complex may be accelerated in the presence of a high concentration of the test inhibitor. The property of binding of test compounds to MAO-A or -B was determined by the formation of the enzyme–inhibitor complex by incubation of the enzyme with a high concentration of the test compound. This was followed by extensive equilibrium dialysis of the enzyme–inhibitor complex. Recovery of catalytic activity of MAO-A and -B was determined before and after the dialysis. […] After 20 min incubation at 37 °C, the reaction was stopped by chilling the tubes in an ice bath. […] All the samples with enzyme–inhibitor complex were individually dialyzed against potassium phosphate buffer (25 mM; pH 7.4) at 4 °C for 16–18 h (including three buffer changes). The control enzyme (without inhibitor) was also run through the same procedure and the activity of the enzyme was determined before and after the dialysis.

The target of data set [7] is T1, MAO-A. As to the kind of experiment: Enzyme-inhibitor complex equilibrium dialysis assay, MAO-A. Format: binding. Particulars: 20 min incubation, dialyzed overnight; 1 10.0 μM, 2 25.0 μM, 3 25.0 μM, 5 100.0 μM. As for the experimental part: as §2
Where [8] appears, read: kynuramine 80 μM, mean ± S.D. of at least triplicate observations, read-out: MAO-A IC50.
Where [9] appears, read: double reciprocal plots, mean ± SD of three observations, read-out: Ki, Monoamine Oxidase-A.

With `COc1ccc(-c2oc3cc(O)cc(O)c3c(=O)c2OC)cc1` [Compound 1, 3,4′-di-O-methylkaempferol], on MAO-A [1], the “Selectivity for MAO-A vs. MAO-B” value is listed as > 292 fold and the “SI b (Selectivity index: MAO-A IC50/MAO-B IC50)” value was 0.0034. In addition, the IC50 at MAO-A [1] (setting [8]) was 33 ± 42 nM. In addition, the IC50 at MAO-B [2] is 9670 ± 2310 nM. At MAO-A [3] (setting [9]), the Ki is 37.9 ± 0.8 nM. For the same compound, the “Type of Inhibition, Monoamine Oxidase-A” value on MAO-A [3] was “reversible-competitive; also recorded: Competitive/Reversible”.
Take `COc1cc(O)c(C(=O)/C=C/c2ccccc2)c(OC)c1` [Compound 2, 2′-hydroxy-4′,6′-dimethoxy-chalcone]: the 50% inhibitory concentration (IC50) was 407 ± 75 nM on MAO-A [1] (setting [8]) and 5930 ± 833 nM at MAO-B [2]. The Ki on MAO-A [3] (setting [9]) was 339 ± 219 nM. In addition, at MAO-A [3], the “Type of Inhibition, Monoamine Oxidase-A” value is on record as “Competitive/Reversible”.
Turning to `COc1cc(O)cc(O)c1C(=O)/C=C/c1ccccc1` [Compound 3, 2′,4′-dihydroxy-6′-methoxy-chalcone], on MAO-A [1], the 50% inhibitory concentration (IC50) amounted to 1170 ± 513 nM, the “Selectivity for MAO-A vs. MAO-B” value was ~ 2 fold and the “SI b (Selectivity index: MAO-A IC50/MAO-B IC50)” value was determined as 0.432. In addition, at MAO-B [4], the Ki came to 1240 ± 600 nM; the “Type of Inhibition, Monoamine Oxidase-B” value was “reversible and competitive”. In addition, the IC50 at MAO-B [2] was determined as 2700 ± 794 nM. Besides, on MAO-B [5], the “Time dependence of MAO-B inhibition” value is on record as “did not show time-dependent inhibition”. Further, at MAO-B [6], the “MAO-B enzyme activity recovered after dialysis” value (“MAO-B enzyme activity recovered” for short) came to 80%, the inhibition at 50 µM is > 60% and the “Reversibility of binding with MAO-B” value is reported as “reversible; also recorded: reversibly”. On MAO-A [3], the affinity corresponds to a Ki of 633 ± 107 nM and the “Type of Inhibition, Monoamine Oxidase-A” value is on record as “reversible-competitive; also recorded: Competitive/Reversible”.
In the case of `COc1cc2oc(-c3ccc(O)cc3)cc(=O)c2c(O)c1C` [Compound 4, 8-demethylsideroxylin], the melting point was 275 to 277 °C. Also, the half-maximal inhibitory concentration (IC50) at MAO-A [1] (setting [8]) amounted to 5170 ± 1110 nM. In addition, the “SI b (Selectivity index: MAO-A IC50/MAO-B IC50)” value on MAO-A [1] amounted to 6.451. Also, at MAO-B [4], affinity was put at a Ki of 809 ± 93 nM; the “Type of Inhibition, Monoamine Oxidase-B” value is “reversible and competitive”. The IC50 on MAO-B [2] turned out to be 800 ± 180 nM. Further, at MAO-B [5], the “Time dependence of MAO-B inhibition” value is “did not show time-dependent inhibition”. Further, on MAO-B [6], the “MAO-B enzyme activity recovered” value came out at 80%, the inhibition at 50 µM was > 60% and the “Reversibility of binding with MAO-B” value is on record as “reversible; also recorded: reversibly”.
Consider `COc1ccc(-c2oc3cc(O)cc(O)c3c(=O)c2O)cc1` [Compound 5, 4′-O-methylkaempferol], for which the half-inhibitory concentration (IC50) is 1350 ± 198 nM on MAO-A [1] (setting [8]) and > 100000 nM at MAO-B [2]. Moreover, the “Reversibility of binding with MAO-A” value on MAO-A [7] is given as “partial reversibility; also recorded: partially reversible”. At MAO-A [3] (setting [9]), the Ki is 3530 ± 265 nM. The “Type of Inhibition, Monoamine Oxidase-A” value at MAO-A [3] is given as “partially-reversible mixed-type”.
Turning to `COc1cc(-c2cc(=O)c3c(O)cc(O)cc3o2)c(OC)c(OC)c1OC` [Compound 6, 5,7-dihydroxy-2,3,4,5-tetramethoxyflavone], the IC50 at MAO-A [1] (setting [8]) came to 87500 ± 3540 nM. Moreover, the “SI b (Selectivity index: MAO-A IC50/MAO-B IC50)” value on MAO-A [1] came to 100.0. Moreover, at MAO-B [4], affinity was put at a Ki of 874 ± 69 nM; the “Type of Inhibition, Monoamine Oxidase-B” value is “reversible and competitive”. Moreover, the IC50 at MAO-B [2] was found to be 875 ± 35 nM. Moreover, at MAO-B [5], the “Time dependence of MAO-B inhibition” value is given as “did not show time-dependent inhibition”. Also, on MAO-B [6], the “MAO-B enzyme activity recovered” value is 80%, the inhibition at 50 µM was > 60% and the “Reversibility of binding with MAO-B” value was “reversible; also recorded: reversibly”.

(Values after article PMC7697615, “Selective Interactions of O-Methylated Flavonoid Natural Products with Human Monoamine Oxidase-A and -B” (Molecules, 2020).)
